For this experiment, the system named is CTL F2. Kind of experiment: Peptide recognition assay: 51Cr release lysis by CTL F2 of peptide-pulsed autologous EBV-B cells. It is filed as cell-based, human. The conditions noted are these: for lysis by CTL F2 of autologous EBV-B cells incubated with peptide (first screening of 16 amino-acid long peptides, FIG. 3A): 1 μg/ml of each peptide, E:T ratio 5:1, chromium release after 4 h; for recognition by CTL F2 of targets pulsed with peptides modified at the C-terminus (FIG. 3C): very high and most probably not physiological concentration of peptide; for recognition by CTL F2 of targets pulsed with peptides modified at the C-terminus (FIG. 3C) / recognition by CTL F2 of peptides of different lengths (peptide titration, FIG. 3B): E:T 5:1, 4 h; for EC50: CTL F2, E:T 5:1, 4 h chromium release (FIG. 3B), read-out: peptide concentration giving half maximal lysis of autologous EBV-B target cells; for recognition by CTL F2 of peptides of different lengths (peptide titration, FIG. 3B): autologous EBV-B targets, 3-fold peptide dilutions, HPLC purified peptides.

The text below walks through data of patent US7311914B2, “MAGE-A4 antigenic peptides and uses thereof” (Ludwig Institute for Cancer Research, priority 2002, dated 2007).

With “SESLKMIFGIDVKEVD (listed as Homo sapiens) [16-mer MAGE-A4 peptide, amino acids 156-171]”, the “lysis by CTL F2 of autologous EBV-B cells incubated with peptide (first screening of 16 amino-acid long peptides, FIG. 3A)” value was “scored positive”.
Take “SESLKMIFI (listed as Homo sapiens) [nonapeptide with C-terminal G replaced by I]”: the “recognition by CTL F2 of targets pulsed with peptides modified at the C-terminus (FIG. 3C)” value is reported as “recognized”.
As for SESLKMIFGI, the EC50 amounted to 1 nM and the “recognition by CTL F2 of peptides of different lengths (peptide titration, FIG. 3B)” value is given as “scored positive”.
For “SESLKMIFG (listed as Homo sapiens) [MAGE-A4 nonapeptide]”, the “recognition by CTL F2 of peptides of different lengths (peptide titration, FIG. 3B)” value is given as “not recognized”.
Take SESLKMIF: the EC50 amounted to 1 nM and the “recognition by CTL F2 of peptides of different lengths (peptide titration, FIG. 3B)” value is on record as “scored positive”.
With “SESLKMIFL (listed as Homo sapiens) [nonapeptide with C-terminal G replaced by L]”, the “recognition by CTL F2 of targets pulsed with peptides modified at the C-terminus (FIG. 3C)” value was “recognized”.
For the sequence “FPVIFGKASESLKMIF (listed as Homo sapiens) [16-mer MAGE-A4 peptide, amino acids 148-163]”, the “lysis by CTL F2 of autologous EBV-B cells incubated with peptide (first screening of 16 amino-acid long peptides, FIG. 3A)” value is “scored positive”.
